Data taken from patent US9321790B2, “Pyrimidinone derivatives as antimalarial agents” (SANOFI, priority 2012, dated 2016).
pIC50: −log10 of the molar value. Like-named read-outs stand apart in the source and are kept apart here.

What was measured:
[1] = test system: Plasmodium falciparum (strain NF54); assay: Antimalarial activity test: growth of Plasmodium falciparum in infected human erythrocytes, 3H-hypoxanthine incorporation; assay type: cell-based; settings: strain NF54 sensitive to chloroquine, 72 h total incubation
Experimental: The compounds according to the invention underwent pharmacological trials to determine their inhibitory effect on the growth of Plasmodium falciparum (strain NF54 sensitive to inhibition with chloroquine) in an in vitro test using infected human erythrocytes. The growth of the parasites is measured via the incorporation of tritiated hypoxanthine compared with the incorporation in the absence of drug. The tests are performed in 96-well microplates (Falcon™ 96-well microtiter plates, ref. No. 353072) in RPMI 1640 solutions (10.44 g/l) (without hypoxanthine) with HEPES (5.94 g/l), NaHCO3 (2.1 g/l), neomycin ([…])+AlbumaxR II (5 g/l) supplemented with human erythrocytes with a final hematocrit of 1.25% and a final parasitemia of 0.15%.
The stock solution of the compounds is prepared at 10 mg/mL in DMSO. For the test, fresh solutions at the desired concentrations are prepared in RPMI medium. For the test, 100 μl of compound are mixed with 100 μl of infected blood. For the determination of the IC50 values, the compounds are tested in twofold serial dilution.
The plates are incubated at 37° C. under a humid atmosphere with 93% N2, 4% CO2 and 3% O2. After 48 hours, 50 μl of ^3H-hypoxanthine (=0.5 μCi) in RPMI medium are added to each well and incubation is continued for a further 24 hours. Next, the plates are washed with distilled water and the cell lyzate is transferred onto fiberglass filters. The filters are dried and the radioactivity is determined by liquid scintillation. The results in cpm are converted into percentages of inhibition. The inhibitory activity is given by the concentration that inhibits 50% of the growth of the parasite relative to a control without compound.

[2] = target: human PI3Kα (Homo sapiens (Human), UniProt P42336); assay: Human PI3Kα activity test (luciferin/luciferase ATP consumption, KinaseGlo); assay type: biochemical; settings: read-out: IC50 Human PI3Kα
Experimental: The test uses a luciferin/luciferase system to measure the concentration of ATP and its consumption during the enzymatic reaction.
After 90 minutes, the reaction is quenched by adding 20 μl/well of KinaseGlo reagent (Promega V6713). After 10 minutes in the dark, the luminescence is read using a PHERAStar microplate reader (reading at 0.8 sec/well).

[3] = PI3Kα (p110α/p85α), 50 μM PIP2, 2 μM ATP, 90 minutes
[4] = Plasmodium falciparum, Erythrocyte
[5] = known compounds of WO 2011/001 112 and WO 2011/001 113

Chain of human PI3Kα (P42336 whole entry): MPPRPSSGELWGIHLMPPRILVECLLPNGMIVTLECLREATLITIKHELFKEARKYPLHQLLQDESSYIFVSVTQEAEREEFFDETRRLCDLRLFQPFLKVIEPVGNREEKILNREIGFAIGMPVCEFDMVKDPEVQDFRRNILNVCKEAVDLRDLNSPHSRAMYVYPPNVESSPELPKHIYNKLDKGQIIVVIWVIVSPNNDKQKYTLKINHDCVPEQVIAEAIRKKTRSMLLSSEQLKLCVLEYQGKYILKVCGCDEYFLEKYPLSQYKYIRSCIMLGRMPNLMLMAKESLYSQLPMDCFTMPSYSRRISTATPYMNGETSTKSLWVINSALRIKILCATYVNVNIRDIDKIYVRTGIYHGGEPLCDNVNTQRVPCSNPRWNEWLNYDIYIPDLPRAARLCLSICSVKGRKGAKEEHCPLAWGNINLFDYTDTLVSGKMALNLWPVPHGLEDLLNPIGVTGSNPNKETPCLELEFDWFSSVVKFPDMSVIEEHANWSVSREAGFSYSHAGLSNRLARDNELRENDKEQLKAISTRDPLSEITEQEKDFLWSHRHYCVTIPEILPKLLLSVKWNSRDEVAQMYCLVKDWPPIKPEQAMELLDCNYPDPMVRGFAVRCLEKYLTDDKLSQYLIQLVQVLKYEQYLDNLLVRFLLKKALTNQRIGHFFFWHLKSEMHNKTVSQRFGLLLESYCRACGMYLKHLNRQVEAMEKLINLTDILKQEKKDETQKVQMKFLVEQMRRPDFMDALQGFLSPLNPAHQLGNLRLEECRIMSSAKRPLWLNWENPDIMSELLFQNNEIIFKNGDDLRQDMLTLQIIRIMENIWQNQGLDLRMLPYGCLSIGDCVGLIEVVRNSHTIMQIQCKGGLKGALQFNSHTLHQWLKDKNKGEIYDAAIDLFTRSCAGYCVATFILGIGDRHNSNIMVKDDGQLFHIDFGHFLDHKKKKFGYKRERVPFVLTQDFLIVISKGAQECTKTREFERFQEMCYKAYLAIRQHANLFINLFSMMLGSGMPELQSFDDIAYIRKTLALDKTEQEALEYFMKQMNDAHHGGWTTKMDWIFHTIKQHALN
Chain of human PI3Kα (P27986 whole entry partner): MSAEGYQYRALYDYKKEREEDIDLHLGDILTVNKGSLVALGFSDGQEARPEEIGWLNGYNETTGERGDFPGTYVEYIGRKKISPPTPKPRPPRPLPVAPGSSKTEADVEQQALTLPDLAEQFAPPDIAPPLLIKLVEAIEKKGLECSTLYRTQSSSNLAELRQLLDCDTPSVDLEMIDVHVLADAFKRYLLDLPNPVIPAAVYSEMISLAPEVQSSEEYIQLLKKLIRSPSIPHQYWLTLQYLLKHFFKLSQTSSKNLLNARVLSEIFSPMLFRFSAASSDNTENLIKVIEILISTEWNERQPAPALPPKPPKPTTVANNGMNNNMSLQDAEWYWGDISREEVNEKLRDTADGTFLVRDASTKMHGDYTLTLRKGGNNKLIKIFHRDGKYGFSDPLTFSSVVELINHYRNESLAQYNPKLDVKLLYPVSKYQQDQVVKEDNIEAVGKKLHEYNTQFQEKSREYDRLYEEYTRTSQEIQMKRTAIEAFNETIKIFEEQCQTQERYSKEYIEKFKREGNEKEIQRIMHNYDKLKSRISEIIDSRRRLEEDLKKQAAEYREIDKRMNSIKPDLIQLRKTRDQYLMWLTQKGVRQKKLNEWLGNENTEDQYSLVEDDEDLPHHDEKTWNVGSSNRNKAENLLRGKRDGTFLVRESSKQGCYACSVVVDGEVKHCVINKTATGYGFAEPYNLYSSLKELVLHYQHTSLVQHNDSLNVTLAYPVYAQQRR

SMILES	pIC50 [1]	pIC50 [2, 3]	pIC50 [1, 4]	pIC50 [2, 5]
CCOC(=O)N1CCC(C(=O)CN2c3nc(N4C[C@@H]5C[C@H]4CO5)cc(=O)n3CC[C@H]2C(F)(F)F)CC1 [Compound 91, 4-[2-((S)-8-(1S,4S)-2-Oxa-5-azabicyclo[2.2.1]hept-5-yl-6-oxo-2-trifluoromethyl-3,4-dihydro-2H,6H-pyrimido[1,2-a]pyrimidin-1-yl)acetyl]piperidine-1-carboxylic acid ethyl ester]	7.60	< 5.00	–	–
N#Cc1ccc(C(=O)CN2c3nc(N4C[C@@H]5C[C@H]4CO5)cc(=O)n3CC[C@H]2C(F)(F)F)cc1 [Compound 42, 4-[2-((S)-8-(1S,4S)-2-Oxa-5-azabicyclo[2.2.1]hept-5-yl-6-oxo-2-trifluoromethyl-3,4-dihydro-2H,6H-pyrimido[1,2-a]pyrimidin-1-yl)acetyl]benzonitrile]	7.10	< 5.00	–	–
C[C@@]1(C(F)(F)F)Cn2c(nc(N3C[C@@H]4C[C@H]3CO4)cc2=O)N1CCc1ccc(N)cc1 [Compound 32, 1-[2-(4-Aminophenyl)ethyl]-2-methyl-7-(1S,4S)-2-oxa-5-azabicyclo[2.2.1]hept-5-yl-2-((S)-trifluoromethyl)-2,3-dihydro-1H-imidazo[1,2-a]pyrimidin-5-one]	8.40	5.43	–	–
O=C(CN1c2nc(N3C[C@@H]4C[C@H]3CO4)cc(=O)n2CC[C@H]1C(F)(F)F)c1ccccn1 [Compound 68, (8S)-2-(1S,4S)-2-oxa-5-azabicyclo[2.2.1]hept-5-yl-9-(2-oxo-2-pyrid-2-ylethyl)-8-trifluoromethyl-6,7,8,9-tetrahydropyrimido[1,2-a]pyrimidin-4-one]	–	5.18	7.57	–
Cc1c(C(=O)CN2c3nc(N4C[C@@H]5C[C@H]4CO5)cc(=O)n3CC[C@H]2C(F)(F)F)cnc(N)c1C [Compound 36, (8S)-9-[2-(6-Amino-4,5-dimethylpyrid-3-yl)-2-oxoethyl]-2-(1S,4S)-2-oxa-5-azabicyclo[2.2.1]hept-5-yl-8-trifluoromethyl-6,7,8,9-tetrahydropyrimido[1,2-a]pyrimidin-4-one]	–	< 5.00	6.62	–
COC(=O)Nc1ccc(C(=O)CN2c3nc(N4C[C@@H]5C[C@H]4CO5)cc(=O)n3CC[C@H]2C(F)(F)F)cn1 [Compound 58, {5-[2-((S)-8-(1S,4S)-2-Oxa-5-azabicyclo[2.2.1]hept-5-yl-6-oxo-2-trifluoromethyl-3,4-dihydro-2H,6H-pyrimido[1,2-a]pyrimidin-1-yl)acetyl]pyrid-2-yl}carbamic acid methyl ester]	7.28	5.19	–	–
O=C(CN1c2nc(N3CC4CCC(C3)O4)cc(=O)n2CC[C@H]1C(F)(F)F)c1ccccc1 [Compound 73, (8S)-2-(8-Oxa-3-azabicyclo[3.2.1]oct-3-yl)-9-(2-oxo-2-phenylethyl)-8-trifluoromethyl-6,7,8,9-tetrahydropyrimido[1,2-a]pyrimidin-4-one]	–	5.60	7.36	–
Cc1cc(C(=O)CN2c3nc(N4C[C@@H]5C[C@H]4CO5)cc(=O)n3CC[C@H]2C(F)(F)F)cnc1N [Compound 31, (8S)-9-[2-(6-Amino-5-methylpyrid-3-yl)-2-oxoethyl]-2-(1S,4S)-2-oxa-5-azabicyclo[2.2.1]hept-5-yl-8-trifluoromethyl-6,7,8,9-tetrahydropyrimido[1,2-a]pyrimidin-4-one]	–	5.20	7.12	–
COc1ccc(CCN2c3nc(N4CC5CCC(C4)O5)cc(=O)n3CC[C@H]2C(F)(F)F)cc1 [Compound 81, (8S)-9-[2-(4-Methoxyphenyl)ethyl]-2-(8-oxa-3-azabicyclo[3.2.1]oct-3-yl)-8-trifluoromethyl-6,7,8,9-tetrahydropyrimido[1,2-a]pyrimidin-4-one]	–	5.70	–	–
O=c1cc(N2CC3CCC(C2)O3)nc2n1CC[C@@H](C(F)(F)F)N2C[C@@H](O)c1ccccc1 [Compound 80, (8S)-9-((S)-2-hydroxy-2-phenylethyl)-2-(8-oxa-3-azabicyclo[3.2.1]oct-3-yl)-8-trifluoromethyl-6,7,8,9-tetrahydropyrimido[1,2-a]pyrimidin-4-one]	–	5.80	–	–
COc1ccc(CCN2c3nc(N4CCOCC4)cc(=O)n3C[C@@]2(C)C(F)(F)F)cc1 [Example 1 (p. 39, WO 2011/001 112), reference compound]	–	–	–	7.82
C[C@@]1(C(F)(F)F)Cn2c(nc(N3CCOCC3)cc2=O)N1C[C@@H](O)c1ccccc1 [Example 10 (p. 61, WO 2011/001 112), reference compound]	–	–	–	7.77

More lines, now with the values ahead:

pIC50 [1]	pIC50 [2, 3]	pIC50 [1, 4]	pIC50 [2, 5]	SMILES
–	< 5.00	6.06	–	Cc1noc(C)c1C(=O)CN1c2nc(N3C[C@@H]4C[C@H]3CO4)cc(=O)n2CC[C@H]1C(F)(F)F [Compound 53, (8S)-9-[2-(3,5-dimethylisoxazol-4-yl)-2-oxoethyl]-2-(1S,4S)-2-oxa-5-azabicyclo[2.2.1]hept-5-yl-8-trifluoromethyl-6,7,8,9-tetrahydropyrimido[1,2-a]pyrimidin-4-one]
–	< 5.00	7.24	–	Cc1ccc(C(=O)CN2c3nc(N4C[C@@H]5C[C@H]4CO5)cc(=O)n3CC[C@H]2C(F)(F)F)cn1 [Compound 4, (8S)-9-[2-(6-methylpyrid-3-yl)-2-oxoethyl]-2-(1S,4S)-2-oxa-5-azabicyclo[2.2.1]hept-5-yl-8-trifluoromethyl-6,7,8,9-tetrahydropyrimido[1,2-a]pyrimidin-4-one]
–	≤ 5.00	7.10	–	O=C(CN1c2nc(N3CC4CCC(C3)O4)cc(=O)n2CC[C@H]1C(F)(F)F)c1ccncc1 [Compound 75, (8S)-2-(8-oxa-3-azabicyclo[3.2.1]oct-3-yl)-9-(2-oxo-2-pyrid-4-ylethyl)-8-trifluoromethyl-6,7,8,9-tetrahydropyrimido[1,2-a]pyrimidin-4-one]
–	< 5.00	7.68	–	COc1ncccc1C(=O)CN1c2nc(N3C[C@@H]4C[C@H]3CO4)cc(=O)n2CC[C@H]1C(F)(F)F [Compound 65, (8S)-9-[2-(2-Methoxypyrid-3-yl)-2-oxoethyl]-2-(1S,4S)-2-oxa-5-azabicyclo[2.2.1]hept-5-yl-8-trifluoromethyl-6,7,8,9-tetrahydropyrimido[1,2-a]pyrimidin-4-one]
–	6.00	> 8.47	–	Cc1ncsc1CCN1c2nc(N3C[C@@H]4C[C@H]3CO4)cc(=O)n2CC[C@H]1C(F)(F)F [Compound 25, (8S)-9-[2-(4-Methylthiazol-5-yl)ethyl]-2-(1S,4S)-2-oxa-5-azabicyclo[2.2.1]hept-5-yl-8-trifluoromethyl-6,7,8,9-tetrahydropyrimido[1,2-a]pyrimidin-4-one]
–	5.38	6.03	–	O=C(CN1c2nc(N3C[C@@H]4C[C@H]3CO4)cc(=O)n2CC[C@H]1C(F)(F)F)c1ccc(N2CCOCC2)cc1 [Compound 41, (8S)-9-[2-(4-Morpholin-4-ylphenyl)-2-oxoethyl]-2-(1S,4S)-2-oxa-5-azabicyclo[2.2.1]hept-5-yl-8-trifluoromethyl-6,7,8,9-tetrahydropyrimido[1,2-a]pyrimidin-4-one]
8.05	5.65	–	–	Cc1n[nH]c(C)c1CCN1c2nc(N3C[C@@H]4C[C@H]3CO4)cc(=O)n2C[C@@]1(C)C(F)(F)F [Compound 28, 1-[2-(3,5-Dimethyl-1H-pyrazol-4-yl)ethyl]-2-methyl-7-(1S,4S)-2-oxa-5-azabicyclo[2.2.1]hept-5-yl-2-((S)-trifluoromethyl)-2,3-dihydro-1H-imidazo[1,2-a]pyrimidin-5-one]
–	< 5.00	7.46	–	Cc1ccncc1C(=O)CN1c2nc(N3C[C@@H]4C[C@H]3CO4)cc(=O)n2CC[C@H]1C(F)(F)F [Compound 20, (8S)-9-[2-(4-methylpyrid-3-yl)-2-oxoethyl]-2-(1S,4S)-2-oxa-5-azabicyclo[2.2.1]hept-5-yl-8-trifluoromethyl-6,7,8,9-tetrahydropyrimido[1,2-a]pyrimidin-4-one]
–	6.70	6.96	–	O=c1cc(N2CC3CCC(C2)O3)nc2n1CC[C@@H](C(F)(F)F)N2CCCc1ccccc1 [Compound 84, (8S)-2-(8-oxa-3-azabicyclo[3.2.1]oct-3-yl)-9-(3-phenylpropyl)-8-trifluoromethyl-6,7,8,9-tetrahydropyrimido[1,2-a]pyrimidin-4-one]
–	≤ 5.00	–	–	O=C(CN1c2nc(N3CC4CCC(C3)O4)cc(=O)n2CC[C@H]1C(F)(F)F)c1cccnc1 [Compound 87, (8S)-2-(8-Oxa-3-azabicyclo[3.2.1]oct-3-yl)-9-(2-oxo-2-pyrid-3-ylethyl)-8-trifluoromethyl-6,7,8,9-tetrahydropyrimido[1,2-a]pyrimidin-4-one]
–	–	–	8.05	COc1ccc(CCN2c3nc(N4CCOCC4)cc(=O)n3CC[C@H]2C(F)(F)F)cc1 [Example 1 (p. 44, WO 2011/001 113), reference compound]
